Here are results for 34 compounds from ChEMBL document CHEMBL1140588, “Design and synthesis of potent amido- and benzyl-substituted cis-3-amino-4-(2-cyanopyrrolidide)pyrrolidinyl DPP-IV inhibitors” (Bioorg Med Chem Lett, 2007).

In one data set the target is hERG (KCNH2) (Homo sapiens, UniProt Q12809). As to the kind of experiment: Displacement of [3H]dofetilide from hERG at 10 uM. The conditions noted are these: probe [3H]dofetilide, read-out: Activity. (In general: In a radioligand displacement assay an active substance lowers the binding of a labelled ligand.)
The next data set concerns the target Dipeptidyl peptidase 8 (Homo sapiens, UniProt Q6V1X1). As to the kind of experiment: Inhibition of human DPP8.
The nature of data set [1]: Bioavailability in Sprague-Dawley rat at 5 mg/kg, po. Format: ADME, organism-based. The conditions noted are these: in vivo.
Data set [2] relates to Rattus norvegicus. The data set can be described thus: Inhibition of DPP4 in Sprague-Dawley rat at 5 mg/kg, po between 4 to 6 hrs. Also noted: scale not given: the % may be the effect or the level left. Format: functional.
Data set [3] addresses Voltage-gated inwardly rectifying potassium channel KCNH2 (Homo sapiens, UniProt Q12809). As to the kind of experiment: Inhibition of hERG by patch clamp assay. The format is toxicity.
Data set [4] can be described thus: Cmax in Sprague-Dawley rat at 5 mg/kg, po. Format: ADME, organism-based. The conditions noted are these: in vivo. More on the design: dose 5 mg/kg, route oral.
Data set [5] can be described thus: Half life in Sprague-Dawley rat at 5 mg/kg, po. The format is ADME, organism-based. Also noted: dose 5 mg/kg, route oral. The conditions noted are these: in vivo.
The subject of data set [6] is Rattus norvegicus. As to the kind of experiment: AUC(0 to infinity) in Sprague-Dawley rat at 5 mg/kg, po. The conditions noted are these: in vivo. Format: ADME, organism-based, Plasma. Also noted: time infinity, dose 5 mg/kg, route oral.
The species entered for data set [7] is Rattus norvegicus. The data set can be described thus: Inhibition of DPP4 in Sprague-Dawley rat. The format is functional.
Data set [8] is described as follows: Plasma protein binding in Sprague-Dawley rat at 5 mg/kg, po. More on the design: dose 5 mg/kg, route oral. The conditions noted are these: read-out: PB (converted). The format is ADME, organism-based.

Sequence of Voltage-gated inwardly rectifying potassium channel KCNH2 (Q12809 whole entry): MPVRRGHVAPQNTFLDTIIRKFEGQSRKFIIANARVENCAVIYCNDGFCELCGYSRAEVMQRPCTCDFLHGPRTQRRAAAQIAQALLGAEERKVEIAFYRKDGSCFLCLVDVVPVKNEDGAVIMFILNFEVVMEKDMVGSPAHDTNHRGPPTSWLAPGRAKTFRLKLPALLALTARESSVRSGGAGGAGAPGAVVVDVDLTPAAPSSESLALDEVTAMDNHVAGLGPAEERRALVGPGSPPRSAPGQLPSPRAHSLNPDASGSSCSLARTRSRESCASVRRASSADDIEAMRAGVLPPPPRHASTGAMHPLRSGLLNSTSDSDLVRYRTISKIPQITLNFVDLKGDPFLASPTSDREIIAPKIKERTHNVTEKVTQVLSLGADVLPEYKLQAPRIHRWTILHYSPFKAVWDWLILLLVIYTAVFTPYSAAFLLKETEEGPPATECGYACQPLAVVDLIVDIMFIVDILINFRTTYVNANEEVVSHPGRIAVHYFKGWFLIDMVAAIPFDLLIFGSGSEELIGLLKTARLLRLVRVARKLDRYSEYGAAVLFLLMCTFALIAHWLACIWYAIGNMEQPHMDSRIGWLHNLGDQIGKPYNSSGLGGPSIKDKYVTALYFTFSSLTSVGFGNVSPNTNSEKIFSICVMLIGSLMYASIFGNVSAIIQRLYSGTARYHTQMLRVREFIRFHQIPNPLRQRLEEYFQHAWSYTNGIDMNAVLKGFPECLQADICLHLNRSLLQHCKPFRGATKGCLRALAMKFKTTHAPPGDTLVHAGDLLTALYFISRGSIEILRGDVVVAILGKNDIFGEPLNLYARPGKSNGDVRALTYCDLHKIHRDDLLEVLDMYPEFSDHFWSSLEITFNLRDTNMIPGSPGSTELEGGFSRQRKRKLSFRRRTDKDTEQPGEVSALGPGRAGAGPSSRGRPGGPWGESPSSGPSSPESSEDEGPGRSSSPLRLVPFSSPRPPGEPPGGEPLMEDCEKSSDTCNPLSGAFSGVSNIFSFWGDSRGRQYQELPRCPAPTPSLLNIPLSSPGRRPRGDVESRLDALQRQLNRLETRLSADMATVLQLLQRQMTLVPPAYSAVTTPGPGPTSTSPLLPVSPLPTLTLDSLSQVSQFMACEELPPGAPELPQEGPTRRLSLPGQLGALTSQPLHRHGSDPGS
Sequence of hERG (KCNH2) (Q12809 whole entry): as above
Sequence of Dipeptidyl peptidase 8 (Q6V1X1 whole entry): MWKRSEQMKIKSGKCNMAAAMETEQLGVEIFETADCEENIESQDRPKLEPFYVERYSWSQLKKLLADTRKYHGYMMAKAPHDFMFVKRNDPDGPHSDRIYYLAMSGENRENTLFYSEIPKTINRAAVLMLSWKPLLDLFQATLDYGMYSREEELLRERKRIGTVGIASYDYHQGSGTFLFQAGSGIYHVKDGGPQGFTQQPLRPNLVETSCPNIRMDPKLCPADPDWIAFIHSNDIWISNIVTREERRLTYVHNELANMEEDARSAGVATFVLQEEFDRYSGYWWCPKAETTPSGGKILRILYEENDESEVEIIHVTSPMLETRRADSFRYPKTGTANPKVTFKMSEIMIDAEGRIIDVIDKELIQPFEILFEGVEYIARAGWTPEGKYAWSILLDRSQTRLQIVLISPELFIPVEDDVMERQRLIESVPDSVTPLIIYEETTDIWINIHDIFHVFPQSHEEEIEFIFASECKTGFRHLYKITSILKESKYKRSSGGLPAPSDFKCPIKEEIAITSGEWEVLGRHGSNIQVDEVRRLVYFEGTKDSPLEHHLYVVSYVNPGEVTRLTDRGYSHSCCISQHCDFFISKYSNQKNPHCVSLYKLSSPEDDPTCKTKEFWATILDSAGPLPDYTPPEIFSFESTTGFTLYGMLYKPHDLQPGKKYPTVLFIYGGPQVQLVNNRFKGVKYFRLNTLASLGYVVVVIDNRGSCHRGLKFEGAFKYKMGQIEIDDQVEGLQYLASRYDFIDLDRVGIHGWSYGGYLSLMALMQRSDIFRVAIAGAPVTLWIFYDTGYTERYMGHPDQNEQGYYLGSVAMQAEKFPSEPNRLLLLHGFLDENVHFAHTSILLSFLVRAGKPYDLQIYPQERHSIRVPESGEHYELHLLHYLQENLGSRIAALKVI

With `N#Cc1ccc(CN2C[C@H](N)[C@H](C(=O)N3CCC[C@H]3C#N)C2)cc1`, the inhibition at 10 µM on hERG (KCNH2) was determined as 47%. Also, at Dipeptidyl peptidase 8, the IC50 (usually the midpoint of a concentration-inhibition curve) was determined as 560 nM.
As for `Cn1nccc1-c1ccc(CN2C[C@H](N)[C@H](C(=O)N3CCC[C@H]3C#N)C2)cc1`, the inhibition at 10 µM at hERG (KCNH2) was 36%. On Dipeptidyl peptidase 8, this compound came in with a half-inhibitory concentration (IC50) of 148 nM.
As for `Cc1ncn(-c2ccc(CN3C[C@H](N)[C@H](C(=O)N4CCC[C@H]4C#N)C3)cc2)n1`, in data set [1], the bioavailability (as a rule, the share of a dose that reaches the circulation, judged against a reference dose that is usually intravenous) is 36%. The compound also registered an Activity in the data set with Rattus norvegicus [2] of 51%. Besides, the inhibition at 10 µM on hERG (KCNH2) amounted to 4%. This compound returned an IC50 on Dipeptidyl peptidase 8 of 858 nM.
In the case of `N#C[C@@H]1CCCN1C(=O)[C@@H]1CN(Cc2cnc3ccccc3c2)C[C@@H]1N`, the inhibition at 10 µM at hERG (KCNH2) came to 36%. Moreover, half-maximal inhibition against Dipeptidyl peptidase 8 (IC50) required 3290 nM.
As for `N[C@H]1CN(C(=O)c2cc3ccccc3s2)C[C@H]1C(=O)N1CCCC1`, the inhibition at 10 µM on hERG (KCNH2) was found to be 5%.
Take `N[C@H]1CN(C(=O)c2ccc3ccccc3c2)C[C@H]1C(=O)N1CCCC1`: the inhibition at 10 µM at hERG (KCNH2) turned out to be 4%.
With `N#C[C@@H]1CCCN1C(=O)[C@@H]1CN(Cc2ccc(-c3cc[nH]n3)cc2)C[C@@H]1N`, the inhibition at 10 µM on hERG (KCNH2) came out at 65%. The compound further returned an IC50 against Dipeptidyl peptidase 8 of 326 nM.
`Cn1cc(-c2ccc(CN3C[C@H](N)[C@H](C(=O)N4CCC[C@H]4C#N)C3)cc2)cn1`: the inhibition at 10 µM at hERG (KCNH2) was 71%. In addition, on Dipeptidyl peptidase 8, the concentration for half-maximal inhibition (IC50) came out at 363 nM.
The corresponding values for `N#C[C@@H]1CCCN1C(=O)[C@@H]1CN(Cc2ccc(-c3csnn3)cc2)C[C@@H]1N` are 91% and 190 nM.
For the compound `N#Cc1ccc2c(c1)CCC2N1C[C@H](N)[C@H](C(=O)N2CCC[C@H]2C#N)C1` (some centres undefined), on hERG (KCNH2), the inhibition at 10 µM was determined as 88%.
For the compound `N[C@H]1CN(C(=O)c2ccc(-n3cnnn3)cc2)C[C@H]1C(=O)N1CCCC1`, the inhibition at 10 µM on hERG (KCNH2) stood at 15%.
Take `CC(c1ccc(C#N)cc1)N1C[C@H](N)[C@H](C(=O)N2CCC[C@H]2C#N)C1` (some centres undefined): at hERG (KCNH2), the inhibition at 10 µM turned out to be 18%. Besides, the concentration for half-maximal inhibition (IC50) against Dipeptidyl peptidase 8 came out at 1040 nM; in [3], 10000 nM.
For the compound `N[C@H]1CN(C(=O)c2ccc3ncccc3c2)C[C@H]1C(=O)N1CCCC1`, the inhibition at 10 µM at hERG (KCNH2) was determined as 19%.
The same measure, in the same setting: as for `N[C@H]1CN(C(=O)c2cc3ccccc3cn2)C[C@H]1C(=O)N1CCCC1`, the figure is 0.5%; as for `N[C@H]1CN(C(=O)c2cnc3ccccc3c2)C[C@H]1C(=O)N1CCCC1`, 9%.
As for `N[C@H]1CN(Cc2ccc(-n3cnnn3)cc2)C[C@H]1C(=O)N1CCCC1`, the inhibition at 10 µM at hERG (KCNH2) is 43%.
On the same count and under the same terms, as for `N#Cc1cc(CN2C[C@H](N)[C@H](C(=O)N3CCCC3)C2)ccc1F`, the figure is 9%; as for `N[C@H]1CN(Cc2ccc(-c3csnn3)cc2)C[C@H]1C(=O)N1CCCC1`, 84%.
The same measure, in the same setting: next, `Cc1cc(-n2cncn2)ccc1CN1C[C@H](N)[C@H](C(=O)N2CCC[C@H]2C#N)C1`: 62%.
Take `N[C@H]1CN(Cc2cnc3ccccc3c2)C[C@H]1C(=O)N1CCCC1`: the inhibition at 10 µM on hERG (KCNH2) was found to be 32%.
For `N#C[C@@H]1CCCN1C(=O)[C@@H]1CN(Cc2ccc(-n3cncn3)cc2)C[C@@H]1N`, the inhibition at 10 µM on hERG (KCNH2) worked out at 40%. The IC50 at Dipeptidyl peptidase 8 was determined as 461 nM; in data set [3] it was 1800 nM.
Consider `CC(c1ccc([N+](=O)[O-])cc1)N1C[C@H](N)[C@H](C(=O)N2CCCC2)C1` (some centres undefined), for which, on hERG (KCNH2), the inhibition at 10 µM came out at 13%.
For the compound `Cc1nnc(-c2ccc(CN3C[C@H](N)[C@H](C(=O)N4CCC[C@H]4C#N)C3)cc2)o1`, the inhibition at 10 µM on hERG (KCNH2) came to 4%. Moreover, the IC50 against Dipeptidyl peptidase 8 turned out to be 704 nM; in [3] it was 165000 nM.
For the compound `Cc1cc(CN2C[C@H](N)[C@H](C(=O)N3CCC[C@H]3C#N)C2)cc(C)c1C#N`, the inhibition at 10 µM at hERG (KCNH2) amounted to 21%. For the same compound, half-maximal inhibition in [3] (IC50) was put at 28900 nM.
Consider `N#C[C@@H]1CCCN1C(=O)[C@@H]1CN(Cc2ccc(-n3nccn3)cc2)C[C@@H]1N`, for which the inhibition at 10 µM on hERG (KCNH2) was 49%. This compound displayed an IC50 against Dipeptidyl peptidase 8 of 247 nM.
On to `CC(c1ccc(-n2cncn2)cc1)N1C[C@H](N)[C@H](C(=O)N2CCC[C@H]2C#N)C1` (some centres undefined), for which, in data set [1], the bioavailability stood at 30.6%. The inhibition at 10 µM at hERG (KCNH2) amounted to 7%. Further, the Cmax – broadly, the highest concentration seen after dosing – in data set [4] turned out to be 1400 ng/mL. Further, the half-life (as a rule, the time in which the quantity being followed falls by half) in data set [5] was 4.3 h. Further, in the data set with Rattus norvegicus [6], the AUC (commonly the area under the concentration-time curve, a measure of exposure) came out at 7703 ng·h/mL. Besides, in the data set filed under Rattus norvegicus [7], the Inhibition (usually the change of the read-out against control, counted positive when it falls) came to 86%. Also, the fraction unbound in data set [8] was 0.77.
In the case of `N#C[C@@H]1CCCN1C(=O)[C@@H]1CN(C2CCOc3ccccc32)C[C@@H]1N` (some centres undefined), at hERG (KCNH2), the inhibition at 10 µM came out at 7%.
In the case of `N[C@H]1CN(C(=O)c2ccc(-n3cncn3)cc2)C[C@H]1C(=O)N1CCCC1`, the inhibition at 10 µM on hERG (KCNH2) stood at 14%.
Still for that read-out and setting: next, `N[C@H]1CN(C(=O)c2cc3cc(Cl)ccc3o2)C[C@H]1C(=O)N1CCCC1`: 14%.
As for `Cc1cc(CN2C[C@H](N)[C@H](C(=O)N3CCC[C@H]3C#N)C2)ccc1-n1cncn1`, at hERG (KCNH2), the inhibition at 10 µM was found to be 17%.
For `N[C@H]1CN(C(=O)c2cnc3ccccc3n2)C[C@H]1C(=O)N1CCCC1`, at hERG (KCNH2), the inhibition at 10 µM stood at 0.241%. Moreover, the 50% inhibitory concentration (IC50) in data set [3] was over 300000 nM.
Consider `N[C@H]1CN(Cc2ccc(F)c(F)c2)C[C@H]1C(=O)N1CCCC1`, for which, on hERG (KCNH2), the inhibition at 10 µM is 19%.
On the same count and under the same terms, next, `CCc1cc(CN2C[C@H](N)[C@H](C(=O)N3CCC[C@H]3C#N)C2)cc(CC)c1C#N`: 3%.
Turning to `N#Cc1cc(CN2C[C@H](N)[C@H](C(=O)N3CCC[C@H]3C#N)C2)ccc1F`, the inhibition at 10 µM at hERG (KCNH2) is 10%. Besides, the IC50 against Dipeptidyl peptidase 8 was found to be 922 nM.
